Test results taken from patent US8680058B2, “Selectively targeted antimicrobial peptides and the use thereof” (priority 2006, dated 2014).
Entries after “also recorded” stand apart in the source; their conditions may differ. Read-outs that look alike come from different tables or passages of the source. No end group written: not given here.

Key:
P. aeruginosa = experiment: microbe, parasite or virus in culture; type: cell-based, Pseudomonas aeruginosa
Procedure: 2.3 Antimicrobial Activities. The general antimicrobial activities of G10KHc, G10, and tobramycin against clinical isolates of P. aeruginosa were evaluated by minimum inhibitory concentration (MIC) assay as previously described (Eckert et al., 2006) and shown in Table 5. MICs are reported in μM, though for familiarity, 1 μM tobramycin=0.468 μg/mL. P. aeruginosa were grown to log phase and adjusted to ˜1×10^5 cfu/mL in Mueller-Hinton (MH) broth and added to 96-well plates. Two-fold serial dilutions of peptide were then added to bacteria and the plates incubated for 18-24 hours at 37° C. MIC was determined as the concentration of peptide present in the last clear well (no growth). […] In contrast to tobramycin, G10KHc was also effective against aminoglycoside and multiple-antibiotic resistant P. aeruginosa isolated from CF patients (AGR10, MR15). Additionally, as mucoid P. aeruginosa are often associated with reduced susceptibility to antimicrobial agents, we were encouraged to find that G10KHc was active against one such strain, PDO300.

S. mutans UA159 and comD = experiment: Binding of fluorescently labeled peptides to S. mutans (fluorescence microscopy); set-up: species or system Streptococcus mutans; details: fluorescently labeled peptide
Text: To determine whether there was a region within the CSPC16 sequence that was responsible for S. mutans-specific binding, we synthesized a series of fluorescently labeled CSPC16 fragments, and analyzed their ability to bind to S. mutans. The following strategies were utilized in dissecting the CSPC16 sequence (Table 2): First, a series of fragments were constructed by generating deletions of 3 or 4 amino acids, from the N to C terminus, across the CSPC16 sequence (C16-1 to C16-5). Peptides lacking larger portions of the C or N termini of CSPC16 were also synthesized (C16-6 to C16-12). Additionally, peptides with Arg to […] (a positive to negative change in charge) (C16-4) or Phe to Gly substitutions (for a general decrease in hydrophobicity) (C16-3), as well as peptides representing a 4-residue Ala scan of the C16 sequence were constructed (C 16-15 to C16-18). […] These peptides include C16 (SEQ ID NO 1), C16-3 (SEQ ID NO 39), C16-4 (SEQ ID NO 40), C16-5 (SEQ ID NO 41), C16-6 (SEQ ID NO 42), C16-11 (SEQ ID NO 47), C16-12 (SEQ ID NO 5), C16-16 (SEQ ID NO 51), C16-17 (SEQ ID NO 52), and C16-18 (SEQ ID NO 53).
(§1) 1.2 Fluorescent labeling of peptides and fluorescence microscopy. Aliquots of CSPC16 (SEQ ID NO 2), CSP-fragment peptides (Table 2), and C16G2 (SEQ ID NO 4) were labeled with carboxyfluorescein (Sigma) as described previously (Eckert et al., 2006). After peptide cleavage but prior to the bacterial labeling assay, fluorescence intensity per μM peptide was checked fluorimetrically (λex=488 nm, λem=520 nm VersaFluor, BioRad) and found to be relatively similar (data not shown). To evaluate the level of peptide binding to bacteria, streptococci from an overnight culture (OD600 of 0.7-1.0) were washed with phosphate buffered saline (1×PBS), diluted 1:2 into 1×PBS, and exposed to peptide (16 μM) for 5 min at 25° C. After incubation with peptide, unbound agent was removed from the bacteria by three cycles of centrifugation (5 min, 16,000×g) and resuspension in 1×PBS. Labeling of oral streptococci was evaluated using brightfield and fluorescence microscopy (Nikon E400) at a 40× magnification. The digital images utilized for the semi-quantitative binding assessment were acquired with the factory-supplied software (SPOT, Diagnostics).

[1] = system: S. mutans JM11 mixed with S. mitis, S. sobrinus, S. gordonii, S. sanguinis; experiment: Selectivity against multi-species biofilms of oral streptococci; type: cell-based
Procedure: Selectivity of STAMPs against multi-species biofilms of oral streptococci. To measure selectivity of STAMPs, mixed biofilms were seeded to 48-well plates. Streptococcus mitis, S. sobrinus, S. gordonii, and S. sanguinis were mixed with S. mutans strain JM11 (spectinomycin resistant) at a 1:1:1:1:10 ratio, total of 10^5 cells/well. Biofilms were grown overnight in TH medium with 1% sucrose, 1% dextrose, and 1% mannose, for 18-24 h. Mature biofilms were treated with PBS plus STAMP as described for the single-species biofilm assay, with the same controls. After treatment, biofilms were washed 2× in PBS and then physically disrupted with a sterile pipette tip in 100 μL PBS per well. Cell suspensions were then serially diluted 10-fold to 10^-6. Diluted suspensions were then plated on TH medium and TH supplemented with spectinomycin, 800 μg/mL. The total amount of biofilm killing (all streptococci) was determined by counting colonies from TH-only plates. Controls: 100% of untreated corresponds to the number of cfu/mL recorded from untreated biofilms, 0% survival was obtained from ethanol sterilized samples. S. mutans killing was determined from quantitating colonies on TH-spectinomycin plates, and combined total cfu/mL, was utilized to calculate the ratio of S. mutans:total population. 1:1 ratio indicates no selectivity.

S. mutans = type: cell-based, Streptococcus mutans
Procedure: (§2) 1.3 Determination of antimicrobial activity. The general antimicrobial activity of peptides against planktonic bacteria was determined by a MIC assay in TH broth (all oral streptococci) (Qi et al., 2005).
(§3) S. mutans, S. gordonii Challis (DL1), and S. sanguinis NY101 strains were grown in Todd Hewitt (TH, Fisher) broth medium at 37° C. under anaerobic conditions (80% N2, 10% CO2, and 10% H2). S. mutans strains UA159 (Ajdic et al., 2002), ATCC 25175, and T8 (Rogers, 1975), are wild-type clinical isolates, while comD is a knockout mutant that was constructed previously from the wild-type UA140 background (Qi et al., 2005). Luciferase expressing S. mutans strain JM11 was constructed from UA140 as described (Merritt et al., 2005). Exponentially growing bacterial cells were diluted to ˜1×10^5 cfu/mL in TH and placed into 96-well plates (Fisher). Peptides were then serially diluted and added to the bacteria.

S. gordonii = type: cell-based, S. gordonii Challis (DL1)
Procedure: as §2, §3

S. sanguinis biofilms = experiment: Single-species biofilm regrowth after peptide exposure, S. sanguinis; type: cell-based; details: 25 μM peptide, 1 min exposure
Procedure: (§4) 1.5 Examination of antimicrobial activity against single-species biofilms. To initiate biofilm formation, ˜1×10^7 bacteria per well (from overnight cultures) were seeded in TH medium (100 μL) to a 96-well flat-bottom plate. For all streptococci except S. mutans, the medium was supplemented with 0.5% (w/v) mannose and glucose. S. mutans UA159 biofilms were grown with 0.5% (w/v) sucrose. Plates were then centrifuged briefly to pellet the cells, and bacteria were incubated for 3-4 hours at 37° C. for biofilm formation. After incubation, the supernatant was carefully removed and biofilms were treated with 25 μM peptide in 1×PBS or 1×PBS alone for 1 min. The peptide solution was then removed and 100 μL TH was added to further dilute any remaining peptide. To minimize biofilm loss, cells were briefly centrifuged after TH addition, after which the supernatants were removed and fresh medium plus appropriate sugars were returned. Cells were then incubated anaerobically at 37° C. and biofilm growth was monitored over time by measuring absorbance at OD600 with a microplate spectrophotometer (Benchmark Plus, BioRad).

S. mutans biofilms = experiment: Single-species biofilm regrowth after peptide exposure, S. mutans; type: cell-based, Streptococcus mutans; details: 25 μM peptide, 1 min exposure
Procedure: as §4

S. sanguinis = type: cell-based, S. sanguinis NY101
Procedure: as §2, §3

S. gordonii biofilms = experiment: Single-species biofilm regrowth after peptide exposure, S. gordonii; type: cell-based; details: 25 μM peptide, 1 min exposure
Procedure: as §4

other oral streptococci = experiment: Binding of fluorescently labeled peptides to other oral streptococci; details: fluorescently labeled peptide
Text: as §1

Row | Substance | MIC (S. gordonii) [µM] | biofilm re-growth after treatment (OD600) (S. sanguinis biofilms) | MIC (S. mutans; S. mutans UA159) [µM] | MIC (S. mutans; S. mutans comD) [µM] | biofilm re-growth after treatment (OD600) (S. mutans biofilms) | MIC (S. sanguinis) [µM] | further results
1 | KKHRKHRKHRKHGGSGGSKNLRRIIRKGIHIIKKYG [Peptide G10KHc] | – | – | – | – | – | – | MIC range (P. aeruginosa): 0.5 to 29 µM; mean MIC (P. aeruginosa): 6.22 µM
2 | TFFRLFTQALGK (synthetic competence stimulating peptide (CSP) fragment peptide C16-3 with internal deletion) | – | – | – | – | – | – | binding to S. mutans (in words) (S. mutans UA159 and comD): binding but at a weaker intensity than CSPC16
3 | TFFRL (synthetic competence stimulating peptide (CSP) fragment peptide C16-11 with C-terminal deletion) | – | – | – | – | – | – | binding to S. mutans (in words) (S. mutans UA159 and comD): binding but at a weaker intensity than CSPC16
4 | NIFEYFLEGGGKLFKFLRKHLL (synthetic selectively/specifically targeted antimicrobial peptide (STAMP) chimeric polypeptide 1903-BD2.21) | – | – | – | – | – | – | impact on total cfu/mL population / other oral streptococci (in words) ([1]; multi-species biofilm, 20 min): some impact on other oral streptococci; reduction of total population ([1]; multi-species biofilm, 20 min): about 30%
5 | KLFKFLRKHLL-OH [BD2.21, KLFKFLRKHLL] | – | – | – | – | – | – | MIC (S. mutans; planktonic S. mutans): 5.5 µM
6 | TFFRLFNRSGGGFKKFWKWFRRF-OH [Peptide M8-33] | 10 ± 2.5 | not affected | 2.5 ± 2.0 | 2.5 ± 2.0 | capable of retarding S. mutans biofilm growth | 20 ± 2.0 | –
7 | KNLRIIRKGIHIIKKY-NH2 [Peptide G2, KNLRIIRKGIHIIKKY*] | 41.3 ± 14.0 | grew similarly to untreated biofilms | 12.1 ± 4.5 | 15.3 ± 4.2 | unaffected | 33.6 ± 7.5 | biofilm re-growth after treatment (OD600) (S. gordonii biofilms): grew similarly to untreated biofilms; MIC (S. mutans; S. mutans 25175): 14.8 ± 2.0 µM; MIC (S. mutans; S. mutans T8): 14.2 ± 1.5 µM
8 | FKKFWKWFRRF-OH [Peptide S6L3-33, FKKFWKWFRRF] | 20 ± 5.0 | – | 7.0 ± 3.0 | 6.5 ± 2.5 | – | 40 ± 7.5 | –
9 | TFFRLFNRAAAAALGK (synthetic competence stimulating peptide (CSP) fragment peptide C16-17 with 4-residue Ala scan) | – | – | – | – | – | – | binding to S. mutans (in words) (S. mutans UA159 and comD): binding but at a weaker intensity than CSPC16
10 | TFFRLFNRSFTQALGKGGGKLFKFLRKHLL (synthetic selectively/specifically targeted antimicrobial peptide (STAMP) chimeric polypeptide C16-BD2.21) | – | – | – | – | – | – | ratio of surviving S. mutans to total Streptococci ([1]; 1:1 ratio indicates no selectivity): 0.075; impact on total cfu/mL population / other oral streptococci (in words) ([1]; multi-species biofilm, 20 min): no impact on the total cfu/mL population
11 | TFFRLFNR-OH [CSPM8, TFFRLFNR] | >60 | – | >60 | >60 | – | >60 | MIC (S. mutans; S. mutans 25175): >60 µM; MIC (S. mutans; S. mutans T8): >60 µM; binding to other oral streptococci (other oral streptococci): little or no binding
12 | TFFRLFNRSFTQALGK-OH [CSPC16, TFFRLFNRSFTQALGK] | >60 | grew similarly to untreated biofilms | >60 | >60 | unaffected | >60 | biofilm re-growth after treatment (OD600) (S. gordonii biofilms): grew similarly to untreated biofilms; MIC (S. mutans; S. mutans 25175): >60 µM; MIC (S. mutans; S. mutans T8): >60 µM; binding to other oral streptococci (other oral streptococci): not to other oral streptococci; binding to S. mutans (in words) (S. mutans UA159 and comD): detected as bound; also recorded: could specifically bind to S. mutans
13 | TFFRAAAASFTQALGK (synthetic competence stimulating peptide (CSP) fragment peptide C16-16 with 4-residue Ala scan) | – | – | – | – | – | – | binding to S. mutans (in words) (S. mutans UA159 and comD): binding but at a weaker intensity than CSPC16
14 | SGSLSTFFRLFNRSFTQALGK-OH [CSP, reference compound] | – | grew similarly to untreated biofilms | 50.8 ± 9.3 | >60 | unaffected | – | MIC (S. gordonii; S. gordonii): >60 µM; biofilm re-growth after treatment (OD600) (S. gordonii biofilms): grew similarly to untreated biofilms; MIC (S. mutans; S. mutans 25175): >60 µM; MIC (S. mutans; S. mutans T8): >60 µM; MIC (S. sanguinis; S. sanguinis): >60 µM
15 | TFFRLFNRGGGKNLRIIRKGIHIIKKY-NH2 [Peptide M8G2] | 20 ± 5.0 | not those of S. sanguinis | 3.25 ± 1.9 | 4.0 ± 2.0 | capable of inhibiting the recovery of S. mutans biofilms | 15 ± 2.5 | MIC (S. mutans; S. mutans 25175): 3.5 ± 0.5 µM
16 | KKHRKHRKHRKH (synthetic targeting peptide Cat-1 domain, KH domain) | – | – | – | – | – | – | antimicrobial activity of targeting domain alone (P. aeruginosa; data not shown): does not have any antimicrobial activity
17 | TRRRLFNRSFTQALGKSGGGFKKFWKWFRRF-OH [Peptide C16-33] | 14.6 ± 5.0 | not affected | – | – | capable of retarding S. mutans biofilm growth | 13.3 ± 5.8 | –
